Laboratory results from patent publication US20260078089A1, “BIOACTIVE PHYTOCHEMICALS IN ZIZYPHUS AND GUARANA” (Phytoquest Limited, priority 2018, published 2026).

How the values were obtained:
α-D-galactosidase = target: T1, α-D-galactosidase (Coffea arabica, UniProt Q42656); assay: Glycosidase assay, p-nitrophenyl substrate; format: biochemical; conditions: Green coffee bean enzyme; screened at 0.14 mg mL−1 (footnote: 0.4 mM)
T1 construct: purchased Sigma Aldrich Chemicals Limited
Method: (§1) Glycosidase assays were conducted as described by Watson et al. (Phytochemistry 1997, 46, 255) using p-nitrophenyl-substrates (except sialidase which used methylumbeliferyl-N-acetyineuraminic acid as substrate). Assays were carried out in microtitre plates. Enzymes were assayed in 0.1 M citric acid/0.2 M di-sodium hydrogen phosphate (McIlvaine) buffers at the optimum pH for the enzyme. All assays were carried out at 20° C. All enzymes and substrates were purchased from Sigma Aldrich Chemicals Limited. The incubation mixture consisted of 10 μl of enzyme solution, 10 μl of the iminosugars solution and 50 μl of the appropriate 5 mM p-nitrophenyl substrate made up in McIlvaine buffer at the optimum pH for the enzyme. The reactions were stopped with 0.4 M glycine (pH 10.4) during the exponential phase of the reaction. Absorbances were read at 405 nm. Water was substituted for the alkaloids in the blanks. Reactions were carried out in triplicate.
(§2) Enzyme inhibitor solutions—Compounds were dissolved in distilled water at a concentration of 1 mg mL^−1 and then screened at a concentration of 0.14 mg mL^−1 after dilution of the 1 mg mL^−1 in the assay volumes of substrates.

α-D-mannosidase = target: T2, α-D-mannosidase (Canavalia ensiformis, UniProt C0HJB3); assay: Glycosidase assay, p-nitrophenyl substrate; format: biochemical; conditions: Jack bean enzyme; screened at 0.14 mg mL−1 (footnote: 0.4 mM)
T2 construct: purchased Sigma Aldrich Chemicals Limited
T2 sequence (C0HJB3 1-981): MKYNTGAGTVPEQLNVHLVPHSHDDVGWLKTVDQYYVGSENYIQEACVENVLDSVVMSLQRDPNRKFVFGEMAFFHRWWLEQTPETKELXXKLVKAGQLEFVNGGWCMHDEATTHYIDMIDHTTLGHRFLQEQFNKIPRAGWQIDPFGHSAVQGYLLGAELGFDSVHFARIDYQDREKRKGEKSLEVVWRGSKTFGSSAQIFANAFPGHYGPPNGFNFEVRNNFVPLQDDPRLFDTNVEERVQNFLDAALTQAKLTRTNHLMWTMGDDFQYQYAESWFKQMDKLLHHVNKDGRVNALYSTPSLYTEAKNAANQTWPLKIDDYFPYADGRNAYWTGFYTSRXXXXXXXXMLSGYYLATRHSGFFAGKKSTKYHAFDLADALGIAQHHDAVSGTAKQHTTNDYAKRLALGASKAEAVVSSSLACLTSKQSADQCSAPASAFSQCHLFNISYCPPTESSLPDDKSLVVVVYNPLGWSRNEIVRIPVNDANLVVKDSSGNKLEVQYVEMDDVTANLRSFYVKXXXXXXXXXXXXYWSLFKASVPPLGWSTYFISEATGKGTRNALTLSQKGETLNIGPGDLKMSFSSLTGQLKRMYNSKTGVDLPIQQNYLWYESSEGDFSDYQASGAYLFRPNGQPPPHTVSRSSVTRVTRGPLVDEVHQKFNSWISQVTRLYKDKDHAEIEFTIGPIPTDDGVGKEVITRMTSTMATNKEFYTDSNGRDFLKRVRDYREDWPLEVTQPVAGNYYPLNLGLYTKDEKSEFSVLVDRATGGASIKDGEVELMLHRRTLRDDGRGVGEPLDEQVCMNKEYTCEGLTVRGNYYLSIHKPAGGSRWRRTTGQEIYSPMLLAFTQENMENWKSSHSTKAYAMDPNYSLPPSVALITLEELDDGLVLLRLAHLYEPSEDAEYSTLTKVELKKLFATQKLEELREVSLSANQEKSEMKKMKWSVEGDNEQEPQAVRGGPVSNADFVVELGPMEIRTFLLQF
Method: as §1, §2

α-L-fucosidase = target: T3, α-L-fucosidase (Bos taurus, UniProt Q2KIM0); assay: Glycosidase assay, p-nitrophenyl substrate; format: biochemical; conditions: Bovine kidney enzyme; screened at 0.14 mg mL−1 (footnote: 0.4 mM)
T3 construct: purchased Sigma Aldrich Chemicals Limited
T3 sequence (Q2KIM0 23-468): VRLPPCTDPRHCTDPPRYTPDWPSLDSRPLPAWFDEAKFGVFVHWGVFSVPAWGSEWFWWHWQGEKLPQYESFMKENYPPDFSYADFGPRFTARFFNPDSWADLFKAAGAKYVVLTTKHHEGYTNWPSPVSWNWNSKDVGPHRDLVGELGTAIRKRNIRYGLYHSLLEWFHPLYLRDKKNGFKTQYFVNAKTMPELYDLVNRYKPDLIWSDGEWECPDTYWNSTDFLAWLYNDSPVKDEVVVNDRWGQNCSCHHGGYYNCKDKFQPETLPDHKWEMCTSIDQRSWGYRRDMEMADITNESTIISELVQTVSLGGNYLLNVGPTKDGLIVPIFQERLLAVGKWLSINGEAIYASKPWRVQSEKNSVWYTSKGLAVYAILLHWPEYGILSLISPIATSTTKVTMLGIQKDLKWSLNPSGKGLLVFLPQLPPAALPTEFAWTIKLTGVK
Method: as §1, §2

α-D-glucosidase [1] = target: T4, α-D-glucosidase (Saccharomyces cerevisiae, UniProt P53341); assay: Glycosidase assay, p-nitrophenyl substrate; format: biochemical; conditions: Saccharomyces cerevisiae enzyme; screened at 0.14 mg mL−1 (footnote: 0.4 mM); 20° C
T4 construct: purchased Sigma Aldrich Chemicals Limited
Method: as §1, §2

[2] = target: T5, N-acetyl-β-D-hexosaminidase (Aspergillus oryzae, UniProt Q8J2T0); assay: Glycosidase assay, p-nitrophenyl substrate; format: biochemical; conditions: Aspergillus oryzae enzyme; screened at 0.14 mg mL−1 (footnote: 0.4 mM)
T5 construct: purchased Sigma Aldrich Chemicals Limited
Method: as §1, §2

α-D-glucosidase [3] = target: T6, α-D-glucosidase (Oryza sativa subsp. japonica, UniProt Q653V7); assay: Glycosidase assay, p-nitrophenyl substrate; format: biochemical; conditions: Rice enzyme; screened at 0.14 mg mL−1 (footnote: 0.4 mM)
T6 construct: purchased Sigma Aldrich Chemicals Limited
Method: as §1, §2

male ddy mouse [4] = assay: Maltose loading test, blood glucose in mice; format: in vivo; conditions: oral maltose 2.5 g/kg, test sample 500 mg/kg body weight, mean n = 5
Method: (§3) The animal experimental protocols in this study were approved by the Animal Experiments Committee of the University of Toyama (S-2010 UH-2). Male ddy mice (29-33 g) after an overnight fast were used for acute disaccharide loading tests. Maltose (2.5 g/kg body weight) or Sucrose (2.5 g/kg body weight) as well as the test samples were dissolved in 0.9% NaCl solution and administered to mice via a stomach tube. A control group was loaded with saline only.
(§4) Blood samples for glucose measurements were obtained from the tail vein at 0, 15, 30, 60, and 120 min after disaccharide-loading. The blood glucose levels were measured by a portable kit, Antsence II™ (Sankyo Co. Ltd. Tokyo, Japan). The Zizyphus extract HS0810/142/41 as well as the purified compounds were tested in this way.

male ddy mouse [5] = assay: Sucrose loading test, blood glucose in mice; format: in vivo; conditions: oral sucrose 2.5 g/kg, test sample 500 mg/kg body weight, mean n = 5
Method: as §3, §4

[6] = system: sialidase (NanH from T. forsythia); assay: Sialidase assay with MUNANA substrate; format: biochemical, Tannerella forsythia; conditions: 1 mM inhibitor, 2.5 nM sialidase, 0.1 mM MUNANA, pH 7.2
Method: Sialidase assays used 1 mM inhibitor (or water without inhibitor) and 2.5 nM sialidase (including NanH from T. forsythia) incubated in the presence of 0.1 mM methylumbeliferyl-N-acetylneuraminic acid, pH 7.2 in 20 mM sodium phosphate buffer. Reactions were stopped at 30 seconds and 60 seconds via addition of ph 10.5 60 mM sodium carbonate buffer. Release of fluorogenic MU was quantified by measuring fluorescence emission at 450 nm, excitation 350 nm. Percentage sialidase activity was expressed as the change in fluorescence between 30 seconds and 60 seconds compared to that of a reaction without inhibitor. Reactions were carried out in triplicate.
MU release can be used to quantify sialidase activity.
1 mM inhibitor (or water without inhibitor) and 2.5 nM sialidase (including NanH from T. forsythia) was incubated in the presence of 0.1 mM MUNANA, pH 7.2 20 mM Sodium Phosphate buffer. Reactions were stopped at 30 seconds and 60 seconds via addition of ph 10.5 60 mM sodium carbonate buffer. Release of fluorogenic MU was quantified by measuring fluorescence emission at 450 nm, excitation 350 nm. Percentage sialidase activity was expressed as the change in fluorescence between 30 seconds and 60 seconds compared to that of a reaction without inhibitor. Reactions were carried out in triplicate.

β-D-galactosidase = assay: Glycosidase assay, p-nitrophenyl substrate; format: biochemical; conditions: Bovine liver enzyme; screened at 0.14 mg mL−1 (footnote: 0.4 mM)
Method: as §1, §2

β-D-mannosidase = assay: Glycosidase assay, p-nitrophenyl substrate; format: biochemical; conditions: Cellullomonas fimi enzyme; screened at 0.14 mg mL−1 (footnote: 0.4 mM)
Method: as §1, §2

Naringinase = assay: Glycosidase assay, p-nitrophenyl substrate; format: biochemical; conditions: Penicillium decumbens enzyme; screened at 0.14 mg mL−1 (footnote: 0.4 mM)
Method: as §1, §2

[7] = system: N-acetyl-β-D-glucosaminidase; assay: Glycosidase assay, p-nitrophenyl substrate; format: biochemical; conditions: screened at 0.14 mg mL−1 (footnote: 0.4 mM)
Method: as §1, §2

α-D-glucosidase [8] = assay: Glycosidase assay, p-nitrophenyl substrate; format: biochemical; conditions: Bacillus sterothermphilus enzyme; screened at 0.14 mg mL−1 (footnote: 0.4 mM)
Method: as §1, §2

Amyloglucosidase = target: T7, Amyloglucosidase (Aspergillus niger, UniProt P69328); assay: Glycosidase assay, p-nitrophenyl substrate; format: biochemical; conditions: Aspergillus niger enzyme; screened at 0.14 mg mL−1 (footnote: 0.4 mM)
T7 construct: purchased Sigma Aldrich Chemicals Limited
Method: as §1, §2

β-D-glucosidase = assay: Glycosidase assay, p-nitrophenyl substrate; format: biochemical; conditions: Almond enzyme; screened at 0.14 mg mL−1 (footnote: 0.4 mM)
Method: as §1, §2

glucosidases = assay: Glycosidase panel, glucosidases overall; format: biochemical; conditions: panel of glucosidases
Method: Glycosidase assays were conducted on Compounds 1 and 3 and an extract of Zizyphus used in the disaccharide loading mouse studies to determine if glucosidase inhibition might explain the effects on blood glucose. A panel of glycosidases were used to be sure any activity found was a selective inhibition and not just non-specific binding to the enzyme.
as §1, with “triplicate. […]” for “triplicate.”

T1 sequence (Q42656 16-378): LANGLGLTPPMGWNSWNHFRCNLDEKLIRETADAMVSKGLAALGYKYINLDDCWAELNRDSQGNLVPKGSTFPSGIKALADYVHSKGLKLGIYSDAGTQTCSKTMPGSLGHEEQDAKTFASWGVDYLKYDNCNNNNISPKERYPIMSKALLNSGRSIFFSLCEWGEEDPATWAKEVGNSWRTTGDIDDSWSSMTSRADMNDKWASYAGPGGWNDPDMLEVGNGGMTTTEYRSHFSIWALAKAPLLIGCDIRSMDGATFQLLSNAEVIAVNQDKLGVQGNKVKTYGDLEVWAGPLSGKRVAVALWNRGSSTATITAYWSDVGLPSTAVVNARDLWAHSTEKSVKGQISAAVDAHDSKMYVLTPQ
T6 sequence (Q653V7 34-885): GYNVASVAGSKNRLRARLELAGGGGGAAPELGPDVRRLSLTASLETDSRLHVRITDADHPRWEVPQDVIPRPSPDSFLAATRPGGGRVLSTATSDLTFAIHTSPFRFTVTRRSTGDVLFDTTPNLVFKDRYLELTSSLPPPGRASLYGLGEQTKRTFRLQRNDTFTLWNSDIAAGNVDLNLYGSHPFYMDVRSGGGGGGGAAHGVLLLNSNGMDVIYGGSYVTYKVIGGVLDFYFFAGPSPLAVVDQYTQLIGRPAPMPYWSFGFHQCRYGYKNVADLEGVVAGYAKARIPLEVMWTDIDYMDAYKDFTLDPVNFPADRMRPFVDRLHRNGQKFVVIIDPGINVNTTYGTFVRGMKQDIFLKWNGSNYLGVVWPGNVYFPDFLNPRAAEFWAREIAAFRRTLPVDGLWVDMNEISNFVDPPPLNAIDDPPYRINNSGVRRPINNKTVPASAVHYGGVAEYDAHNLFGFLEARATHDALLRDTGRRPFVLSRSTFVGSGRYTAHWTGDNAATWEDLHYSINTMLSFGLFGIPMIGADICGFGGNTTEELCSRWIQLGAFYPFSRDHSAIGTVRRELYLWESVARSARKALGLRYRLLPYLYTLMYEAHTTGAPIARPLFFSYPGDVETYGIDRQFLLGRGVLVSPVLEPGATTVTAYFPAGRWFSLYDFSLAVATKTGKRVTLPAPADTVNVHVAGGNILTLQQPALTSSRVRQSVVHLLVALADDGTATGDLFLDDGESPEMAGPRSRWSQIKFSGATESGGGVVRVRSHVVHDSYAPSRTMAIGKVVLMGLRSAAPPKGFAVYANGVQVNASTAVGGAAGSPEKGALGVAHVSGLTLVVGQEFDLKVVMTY
T5 sequence (Q8J2T0 97-600): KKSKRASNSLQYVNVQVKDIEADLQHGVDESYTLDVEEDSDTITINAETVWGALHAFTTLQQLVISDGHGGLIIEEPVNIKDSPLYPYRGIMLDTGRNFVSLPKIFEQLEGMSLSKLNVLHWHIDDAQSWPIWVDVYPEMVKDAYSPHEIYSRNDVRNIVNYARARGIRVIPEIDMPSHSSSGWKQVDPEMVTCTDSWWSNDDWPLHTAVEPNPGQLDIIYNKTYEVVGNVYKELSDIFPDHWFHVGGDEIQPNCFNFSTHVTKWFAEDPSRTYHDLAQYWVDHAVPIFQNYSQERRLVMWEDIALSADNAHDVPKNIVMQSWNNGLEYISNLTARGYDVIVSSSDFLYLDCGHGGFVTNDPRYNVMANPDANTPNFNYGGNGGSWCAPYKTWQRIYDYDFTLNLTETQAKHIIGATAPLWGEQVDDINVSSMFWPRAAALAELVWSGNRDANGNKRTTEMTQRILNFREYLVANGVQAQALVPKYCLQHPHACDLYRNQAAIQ
T4 sequence (P53341 whole entry): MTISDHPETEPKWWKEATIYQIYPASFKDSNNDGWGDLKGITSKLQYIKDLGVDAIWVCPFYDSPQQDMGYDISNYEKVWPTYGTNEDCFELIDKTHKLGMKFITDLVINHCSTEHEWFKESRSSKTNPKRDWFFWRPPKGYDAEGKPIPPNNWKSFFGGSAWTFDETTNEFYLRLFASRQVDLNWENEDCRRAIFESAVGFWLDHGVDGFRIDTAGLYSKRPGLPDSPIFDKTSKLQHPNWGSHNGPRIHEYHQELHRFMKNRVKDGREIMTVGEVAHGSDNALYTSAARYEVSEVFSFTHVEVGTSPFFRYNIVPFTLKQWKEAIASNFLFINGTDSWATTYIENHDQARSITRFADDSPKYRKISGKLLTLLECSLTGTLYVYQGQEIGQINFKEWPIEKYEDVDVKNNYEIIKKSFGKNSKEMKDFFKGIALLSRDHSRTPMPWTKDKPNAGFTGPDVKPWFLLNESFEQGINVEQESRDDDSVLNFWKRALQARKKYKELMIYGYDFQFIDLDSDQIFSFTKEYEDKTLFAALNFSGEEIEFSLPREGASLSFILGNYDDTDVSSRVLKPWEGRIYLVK
T7 sequence (P69328 25-640): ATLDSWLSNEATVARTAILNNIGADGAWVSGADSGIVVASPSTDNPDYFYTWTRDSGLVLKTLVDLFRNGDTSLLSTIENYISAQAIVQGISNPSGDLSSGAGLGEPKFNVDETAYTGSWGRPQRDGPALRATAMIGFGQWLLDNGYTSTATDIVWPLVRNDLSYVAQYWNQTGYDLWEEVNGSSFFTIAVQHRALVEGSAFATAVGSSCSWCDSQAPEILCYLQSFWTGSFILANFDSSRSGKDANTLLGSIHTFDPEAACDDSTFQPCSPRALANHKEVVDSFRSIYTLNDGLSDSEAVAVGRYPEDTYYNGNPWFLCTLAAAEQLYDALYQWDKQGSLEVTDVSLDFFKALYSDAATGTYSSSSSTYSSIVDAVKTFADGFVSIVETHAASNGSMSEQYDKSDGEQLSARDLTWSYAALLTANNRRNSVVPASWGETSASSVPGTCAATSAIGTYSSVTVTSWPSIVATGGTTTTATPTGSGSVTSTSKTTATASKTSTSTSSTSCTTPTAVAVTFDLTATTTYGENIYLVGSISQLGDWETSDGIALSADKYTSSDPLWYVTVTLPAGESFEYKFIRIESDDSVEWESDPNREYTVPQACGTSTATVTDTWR

| Compound | % inhibition (α-D-galactosidase) [%] | % inhibition (α-D-mannosidase) [%] | % inhibition (α-L-fucosidase) [%] | % inhibition (α-D-glucosidase [1]) [%] | % inhibition [2] [%] | % inhibition (α-D-glucosidase [3]) [%] | blood glucose (male ddy mouse [4]; 0 min after administration) [mg/dL] | blood glucose (male ddy mouse [4]; 15 min after administration) [mg/dL] | blood glucose (male ddy mouse [4]; 30 min after administration) [mg/dL] | blood glucose (male ddy mouse [4]; 60 min after administration) [mg/dL] | blood glucose (male ddy mouse [4]; 120 min after administration) [mg/dL] | also measured |
| --- | --- | --- | --- | --- | --- | --- | --- | --- | --- | --- | --- | --- |
| CN1C[C@@H](CO)C[C@H]1C(=O)O [Compound 1, N-methyl-4S-(hydroxymethyl)-2S-pyrrolidinecarboxylic acid] | <5 | 18 | 15 | <5 | −6 | 5 | 83 | 231 | 187 | 140 | 74 |  |
| CN1C[C@](O)(CO)C[C@H]1C(=O)O [Compound 3, N-methyl-4-hydroxy-4S-(hydroxymethyl)-2S-pyrrolidinecarboxylic acid] | <5 | 6 |  | <5 | −6 | 11 | 83 | 233 | 185 | 130 | 80 | blood glucose (male ddy mouse [5]; 0 min after administration): 109 mg/dL; blood glucose (male ddy mouse [5]; 15 min after administration): 183 mg/dL; blood glucose (male ddy mouse [5]; 30 min after administration): 143 mg/dL; blood glucose (male ddy mouse [5]; 60 min after administration): 106 mg/dL; blood glucose (male ddy mouse [5]; 120 min after administration): 80 mg/dL |
| OC[C@H]1NC[C@H](O)[C@@H](O)[C@@H]1O [DNJ, 1-deoxynojirimycin] | −3.34 | 26.65 | 5.86 | 35.67 | −5.50 | 99.56 |  |  |  |  |  | % inhibition [6]: 2%; % inhibition (β-D-galactosidase): 0.45%; % inhibition (β-D-mannosidase): −19.03%; % inhibition (Naringinase): 20.81%; % inhibition ([7]; Bovine kidney enzyme): −0.83%; % inhibition ([7]; Jack bean enzyme): 2.76%; % inhibition (α-D-glucosidase [8]): 99.48%; % inhibition (Amyloglucosidase): 31.71%; % inhibition (β-D-glucosidase): 63.7%; glucosidase inhibition (in words) (glucosidases): expected strong inhibition of various glucosidases |
